The values that follow come from publication PMC10419416, “Fighting Pseudomonas aeruginosa Infections: Antibacterial and Antibiofilm Activity of D-Q53 CecB, a Synthetic Analog of a Silkworm Natural Cecropin B Variant” (International Journal of Molecular Sciences, 2023).

≈ marks a conversion by molar mass, not a printed value. Like-named read-outs stand apart in the source and are kept apart here.

In data set [1] the test system is T1, human neutrophil elastase.
T1 construct: purchased Merck
The data set is described as follows: Enzymatic digestion with human neutrophil elastase, RP-HPLC. In kind it is in vitro ADME. To be noted: isolated enzyme elastase; peptide 1 mg/mL in 10 mM Tris-HCl pH 7.5, 20 U human leukocyte elastase, 37 °C, 5 h (300 min), RP-HPLC C18 peak integration; read-out: % of intact peptide. The protocol: (§1) L- and D-Q53 CecB peptides, as well as the human LL-37 peptide (Merck, Burlington, MA, USA), were dissolved in 10 mM Tris-HCl, pH 7.5, at a final concentration of 1 mg/mL. Subsequently, 120 μL of each peptide solution were incubated at 37 °C with 20 U of human leukocyte elastase (Merck) or P. aeruginosa elastase (Elastin Products Company, Owensville, MO, USA) and 5 μL of 10 mM Tris-HCl, pH 7.5. At given time intervals (30, 60, 120, and 300 min), a volume corresponding to 30 μg of each peptide was diluted in 70 μL of 1% trifluoroacetic acid (TFA) to stop the reaction. Peptide suspensions,v without any enzyme (undigested controls), were processed in parallel. Each solution was analyzed by RP-HPLC, using a Phenomenex LC C18 analytical column (300 Å, […], 250 × 4.6 mm; Phenomenex, Torrance, CA, USA) and a Widepore C18 security guard cartridge (4 × 3.0 mm; Phenomenex, Torrance, CA, USA), in a 30 min-linear Acetonitrile (ACN) gradient (from 0% to 40% for L- and D-Q53 CecB peptides; from 20% to 60% for LL-37). A Waters Alliance 2695 Separations Module connected to a 996 PDA (Waters, Milford, MA, USA) was employed for RP-HPLC.

The test system of another data set is T2, P. aeruginosa elastase.
T2 construct: purchased Elastin Products Company
The data set is described as follows: Enzymatic digestion with P. aeruginosa elastase, RP-HPLC. To be noted: isolated enzyme elastase; peptide 1 mg/mL in 10 mM Tris-HCl pH 7.5, 20 U P. aeruginosa elastase, 37 °C, 30 min, RP-HPLC C18 peak integration; read-out: % of full-length peptide. In kind it is in vitro ADME. The protocol: as §1

For data set [2], the system named is P. aeruginosa ATCC 25668, ATCC 27853, and PAO1-L strains. Kind of data set: microbe, parasite or virus in culture. Format: cell-based, Pseudomonas aeruginosa. To be noted: Pseudomonas aeruginosa; LB medium, 24 h, 37 °C, OD600; same value for all three strains; triplicate, at least three experiments. The protocol:
(§2) The following strains were used: P. aeruginosa ATCC 27853, ATCC 25668, and PAO1-L (Lausanne subline). All strains were grown at 37 °C in Luria Bertani (LB) medium or in Luria Bertani Agar (LBA) plates.
(§3) The antibacterial activities of L- and D-Q53 CecB were evaluated by determining (i) the MIC and (ii) the MBC. Tobramycin (Merck) was used as an antibiotic control. (i) An overnight (ON) bacterial culture was diluted to 1 × 10^6 cells/mL in LB medium. 50 µL/well were seeded in sterile polypropylene 96-well plates (Corning, Corning, NY, USA) and added with 50 µL LB medium, containing serial dilutions of each compound (final concentrations of L- and D-Q53 CecB peptides from 1.1 to 35.2 µM; final concentrations of tobramycin from 0.26 to 17 μM; each condition in triplicate). Microbial suspensions in the growing medium (positive control) and wells with only the medium (negative controls) were processed in parallel. Plates were incubated 24 h at 37 °C with agitation (300 rpm), and the absorbance was measured at 600 nm in a microplate reader. The MIC was considered as the lowest concentration determining a delta optical density at 600 nm (ΔOD600) equal to 0 ± 0.05. The ΔOD600 was determined by subtracting the OD600 recorded at time 0 from that obtained after 24 h. Each experiment was performed at least three times. […] For each sample, 100 μL of 1:10, 1:100, and 1:1000 dilutions were plated on LBA plates, and colonies were counted after 24 h at 37 °C. […] Each experiment was performed at least twice.

Data set [3] concerns P. aeruginosa ATCC 27853 and ATCC 25668 strains. Kind of data set: microbe, parasite or virus in culture. Format: cell-based, Pseudomonas aeruginosa. To be noted: Pseudomonas aeruginosa, 24 h. On the procedure:
as §2, §3

Data set [4] deals with P. aeruginosa PAO1-L strain. The data set is described as follows: microbe, parasite or virus in culture. Format: cell-based, Pseudomonas aeruginosa. To be noted: Pseudomonas aeruginosa, value between parentheses, 24 h, 37 °C, plating on LBA. The protocol: as §2, §3
For data set [5], the system named is P. aeruginosa ATCC 25668, mucoid strain. Format: cell-based, Pseudomonas aeruginosa. To be noted: for biofilm biomass vs untreated controls (biofilm formation): 24 h. The protocol:
(§4) An ON bacterial culture was diluted to 2 × 10^6 cells/mL in an LB medium. 50 µL/well were seeded in a sterile non-treated polystyrene 96-well plate (Corning) and added with 50 µL LB medium containing serial dilutions of each compound (final concentrations of L- and D-Q53 CecB peptides: from 0.034 to 17.6 µM; final concentrations of tobramycin: 0.27 and 0.53 μM, and from 2.14 to 17 μM). Each condition was tested in three-six replicates. Wells containing untreated bacteria (negative controls) or LB medium only (blank) were followed in parallel. Each plate was incubated for 24 h at 37 °C without agitation. After washing twice, samples were stained with a 0.1% crystal violet solution for 20 min, washed three times, and incubated in 30% acetic acid for 20 min, as in [74]. Plates were read at 595 nm using a microplate reader. For each sample, the biofilm biomass percentage was calculated relative to that of the untreated control showing the highest OD value, set equal to 100%. Each experiment was performed at least twice.

Data set [6] has as its system P. aeruginosa ATCC 27853, non-mucoid strain. Format: cell-based, Pseudomonas aeruginosa. To be noted: for biofilm biomass vs untreated controls (biofilm formation): 24 h. On the procedure:
as §4

Data set [7] deals with P. aeruginosa ATCC 25668, mucoid strain. The data set is described as follows: Degradation of pre-formed 24 h old biofilm, crystal violet. In kind it is cell-based, Pseudomonas aeruginosa. To be noted: 1 h; L-Q53 CecB 1/2 to 8 MIC (except 4 MIC), tobramycin 1 to 8 MIC. On the procedure:
(§5) One hundred μL of bacteria (1 × 10^6 cells/mL), derived from a fresh ON culture, were seeded in a sterile non-treated polystyrene 96-well plate (Corning) and incubated for 24 h at 37 °C without agitation. […] Evaluation of biofilm biomass was performed using a crystal violet assay as described above (Section 4.8). Experiments were performed two-four times.

In data set [8] the test system is P. aeruginosa ATCC 27853, non-mucoid strain. Described as above. To be noted: 1 h; L-Q53 CecB 1/2 to 8 MIC, tobramycin 1 to 8 MIC. In kind it is cell-based, Pseudomonas aeruginosa. The protocol:
as §5

[9] abbreviates: concentrations from 8 to 1 MIC (1 MIC = 2.2 µM peptides, 2.14 µM tobramycin), 24 h static, 37 °C, stated for both strains.

For `CC[C@H](C)[C@H](NC(=O)[C@H](CCCCN)NC(=O)[C@H](CCC(=O)O)NC(=O)[C@H](CCCCN)NC(=O)[C@H](CO)NC(=O)[C@H](CCCCN)NC(=O)[C@H](CCCNC(=N)N)NC(=O)[C@H](Cc1ccccc1)NC(=O)[C@H](Cc1ccccc1)NC(=O)[C@H](CC(=O)O)NC(=O)CNC(=O)[C@H](CC(C)C)NC(=O)[C@@H](N)CC(C)C)C(=O)NCC(=O)N[C@@H](CCCCN)C(=O)N[C@@H](CCC(=O)O)C(=O)N[C@@H](Cc1ccccc1)C(=O)N[C@@H](CCCCN)C(=O)N[C@@H](CCCNC(=N)N)C(=O)N[C@H](C(=O)N[C@H](C(=O)N[C@@H](CCC(N)=O)C(=O)N[C@@H](CCCNC(=N)N)C(=O)N[C@H](C(=O)N[C@@H](CCCCN)C(=O)N[C@@H](CC(=O)O)C(=O)N[C@@H](Cc1ccccc1)C(=O)N[C@@H](CC(C)C)C(=O)N[C@@H](CCCNC(=N)N)C(=O)N[C@@H](CC(N)=O)C(=O)N[C@@H](CC(C)C)C(=O)N[C@H](C(=O)N1CCC[C@H]1C(=O)N[C@@H](CCCNC(=N)N)C(=O)N[C@H](C(=O)N[C@@H](CCC(=O)O)C(=O)N[C@@H](CO)C(=O)O)[C@@H](C)O)C(C)C)[C@@H](C)CC)C(C)C)[C@@H](C)CC` [LL-37, reference compound], the remaining at 5 h, 1 mg/mL in data set [1] amounted to 8.7%. In addition, the remaining at 0.5 h, 1 mg/mL in the data set with P. aeruginosa elastase is around 0.2%.

`NC[C@H]1O[C@H](O[C@H]2[C@H](O)[C@@H](O[C@H]3O[C@H](CO)[C@@H](O)[C@H](N)[C@H]3O)[C@H](N)C[C@@H]2N)[C@H](N)C[C@@H]1O` [Tobramycin, reference compound] had an MIC in [2] of 2.14 µM (≈ 1 µg/mL). Moreover, the MBC in [3] is 4.29 µM (≈ 2.01 µg/mL); in data set [4], 8.56 µM (≈ 4 µg/mL). In addition, the “biofilm biomass vs untreated controls (biofilm formation)” value in data set [5] (1/4 MIC) was “significantly higher”; in data set [5] (1/8 MIC), “not significantly different”; in [6] (1/4 MIC) it was “not affected”; in [6] (1/8 MIC), “not significantly different”. Besides, the “decrement in biofilm biomass vs untreated controls (inhibition of biofilm formation)” value in [5] (setting [9]) and in data set [6] (setting [9]) was ~ 99.9% in each case. In addition, the “reduction of pre-formed biofilm biomass at all tested concentrations” value in [7] and in data set [8] was “not efficient” in each case.
